The source of these data is patent publication US20150216870A1, “Combination of PI3K Inhibitor and C-Met Inhibitor” (Novartis AG, priority 2012, published 2015).

Molecules are shown by their SMILES.

Assay [1] relates to U-87 MG. In words: CellTiter-Glo cell viability dose matrix in U-87 MG glioblastoma cells. Type of assay: cell-based, human. Particulars: U87 MG (PTEN mutant, HGF expressing). (In ATP-based viability assays light output follows the ATP content of the culture.)
Protocol: (§1) The PI3K inhibitor COMPOUND C and the c-MET receptor tyrosine kinase inhibitor 2-fluoro-N-methyl-4-[7-quinolin-6-yl-methyl)-imidazo[1,2-b][1,2,4]triazin-2yl]benzamide are evaluated in combination in glioblastoma tumor models. COMPOUND C (10 mM) and 2-fluoro-N-methyl-4-[7-quinolin-6-yl-methyl)-imidazo[1,2-b][1,2,4]triazin-2yl]benzamide (10 mM) are dissolved in DMSO, and are stored in aliquots at −20° C.
(§2) Human Glioblastoma cell lines, U-87 MG (PTEN mutant and HGF expressing line), H4 (PTEN mutant and HGF expressing line), A172 (PTEN mutant line with low HGF expression level) and LN-229 (PTEN wildtype and HGF low) are purchased from American Type Cell Collection and are maintained in a humidified incubator at 37° C. in 5% CO2 in recommended media. All four cell lines express detected MET at the mRNA level.
(§3) The cells are passaged twice a week and the medium is changed every 2 to 3 days. […]
(§4) Cell viability is determined by measuring cellular ATP content using the CellTiter-Glo® (CTG) luminescent cell viability assay (Promega). […] An equal volume of the CTG reagents is added to each well at the end of the compound treatment and luminescence is recorded on an Envision plate reader (Perkin Elmer). Reduced and enhanced luminescent signal values (responses) are calculated relative to untreated (control) cells. […]
For assay [2], the system named is A172. Put plainly: CellTiter-Glo cell viability dose matrix in A172 glioblastoma cells. Type of assay: cell-based, human. Particulars: A172 (PTEN mutant, low HGF).
Protocol: as §1, §2, §3, §4
In assay [3] the test system is EBC-1. Put plainly: Cell viability (CellTiterGlo) combination dose matrix in EBC-1. Type of assay: cell-based, human. The conditions noted are these: combination with c-Met inhibitor, 72 h, excluding highest concentration, 0 no inhibition, 1 = 100% inhibition/stasis, 2 = cell death.
Protocol: (§5) Compound stocks of both compounds are individually prepared in DMSO. Compounds are serially diluted using a Tecan dispenser to cover a ˜1000× range of concentrations. […] Both single agent and combinations are tested at multiple concentrations, along with controls and one self-cross.
(§6) The cell lines used in this study are purchased from American Type Cell Collection, including human non small cell lung cancer cell lines EBC-1 (which bears c-Met amplification), NCI-H1993 (which bears c-MET amplified), NCI-H1648 (which bears c-Met amplification), NCI-H1573 (which bears c-Met amplification and KRAS mutation) and HCC2935 (EGFR mutation). All cell lines are maintained in their respective culture medium as specified by the provider.
(§7) For the assessment of combination effects, cells are seeded into 384-well plates at 500 cells/well and incubated overnight. […]
(§8) Effects of single agents as well as their combination on cell viability is assessed after 72 hours of incubation at 37° C./5% CO2 by quantification of cellular ATP levels (CellTiterGlo, Promega) using 25 μL reagent/well and n=2 replicate plates per condition. The number/viability of cells at time of compound addition is likewise assessed and used to estimate the population doubling time of a cell line.
(§9) For untreated and treated levels U and T, inhibition is calculated using the formula I=1−T/U, which ranges from 0% to 100% for complete inhibition. […]
(§10) The Loewe expectation [Loewe S., Ergebn Physiol 27: 47-187 (1928)) is calculated at each dose pair CX,Y by finding the inhibition ILoewe such that (CX/ICX)+(CY/ICY)=1, and ICX,Y are the effective concentrations at ILoewe for the fitted single agent curves, using numerical optimization [Berenbaum M C, J Theor Biol 114: 413-431 (1985)]. The “synergy score” S is calculated by averaging the difference between Idata and ILoewe across all the tested combination dose points, excluding the highest concentration point in the dose matrix, which is most likely to be dominated by drug off-target effects. […]
Assay [4] has as its system H4. In words: CellTiter-Glo cell viability dose matrix in H4 glioblastoma cells. It counts as cell-based, human. Particulars: H4 (PTEN mutant, HGF expressing).
Protocol: as §1, §2, §3, §4
The subject of assay [5] is NCI-H1573. Put plainly: Cell viability (CellTiterGlo) combination dose matrix in NCI-H1573. Type of assay: cell-based, human. The conditions noted are these: combination with c-Met inhibitor, 72 h, excluding highest concentration.
Protocol: as §5, §6, §7, §8, §9, §10
Assay [6] concerns LN-229. Put plainly: CellTiter-Glo cell viability dose matrix in LN-229 glioblastoma cells. Type of assay: cell-based, human. The conditions noted are these: LN229 (PTEN wildtype, HGF low).
Protocol: as §1, §2, §3, §4
For assay [7], the system named is NCI-H1648. In words: Cell viability (CellTiterGlo) combination dose matrix in NCI-H1648. Type of assay: cell-based, human. The conditions noted are these: combination with c-Met inhibitor, 72 h, excluding highest concentration.
Protocol: as §5, §6, §7, §8, §9, §10
Assay [8] relates to NCI-H1993. In words: Cell viability (CellTiterGlo) combination dose matrix in NCI-H1993. Type of assay: cell-based, human. Particulars: combination with c-Met inhibitor, 72 h, excluding highest concentration.
Protocol: as §5, §6, §7, §8, §9, §10
Assay [9] deals with HCC2935. In words: Cell viability (CellTiterGlo) combination dose matrix in HCC2935. Type of assay: cell-based, human. The conditions noted are these: combination with c-Met inhibitor, 72 h, excluding highest concentration.
Protocol: as §5, §6, §7, §8, §9, §10
The subject of assay [10] is U-87 MG human glioblastoma xenograft. Put plainly: U-87 MG xenograft tumor growth inhibition and tumor growth delay. Type of assay: in vivo, nude mice. Particulars: for T/C or T/T0: D13. As for the experimental part: In this experiment, the U-87 MG human glioblastoma xenograft model is used to assess the anti-tumor efficacy of the PI3K inhibitor COMPOUND C and c-Met inhibitor 2-fluoro-N-methyl-4-[7-quinolin-6-yl-methyl)-imidazo[1,2-b][1,2,4]triazin-2yl]benzamide as single agents or in combination. U-87 MG tumor cells obtained from the National Cancer Institute are reported to be homozygous for likely oncogenic variants of CDKN2A, CDKN2C, CDKN2a, and PTEN; no mutations are detected in MET, PIK3CA, or 58 other genes that are frequently altered in neoplastic cells; and HGF expressing.
Mice are treated daily for 21 days with 17.7 and 35.3 mg/kg of the c-Met inhibitor and 32.7 mg/kg COMPOUND C monotherapies, and with the c-Met inhibitor/COMPOUND C dual therapy at 17.7:32.7. An c-Met inhibitor/COMPOUND C combination at the 58.8:5.4 mg/kg dose ratio was included in the study. The control mice received both vehicles, and a standard preclinical temozolomide regimen monitored tumor model performance. The oral treatments began on Day 1 (D1) in nude mice with established subcutaneous tumors. Each animal was euthanized when its tumor reached the predetermined 2000 mm3 endpoint volume, or on D60, whichever came first. The study was terminated on D51. […] Overall efficacy was determined from the times required for tumors to progress to the volume endpoint, and from D51 survival and regression rates. This report describes the methods and results of the U87MG-e326 tumor growth delay experiment.
The animals are fed ad libitum water (reverse osmosis, 1 ppm CI) and NIH 31 Modified and Irradiated Lab Diet® consisting of 18.0% crude protein, 5.0% crude fat, and 5.0% crude fiber. The mice are housed on irradiated Enrich-O'cobs™ Laboratory Animal Bedding in static microisolators on a 12-hour light cycle at 20-22° C. (68-72° F.) and 40-60% humidity.
The U-87 MG tumor line is obtained from the American Type Culture Collection and maintained by serial engraftment in nude mice. A tumor fragment (1 mm^3) is implanted subcutaneously into the right flank of each test mouse. Tumors are calipered in two dimensions to monitor growth as their mean volume approached the desired 100-150 mm^3 range. Tumor size, in mm^3, was calculated from: Tumor Volume=(width^2×length)/2, where width and length (in mm) are measurements of the tumor. Tumor weight can be estimated with the assumption that 1 mg is equivalent to 1 mm^3 of tumor volume. Fourteen days after tumor cell implantation, on D1 of the study, mice with individual tumor volumes of 63-196 mm^3 are sorted into seven groups, with group mean tumor volumes of 122-127 mm^3.
The c-Met inhibitor 2-fluoro-N-methyl-4-[7-quinolin-6-yl-methyl)-imidazo[1,2-b][1,2,4]triazin-2yl]benzamide (di-HCl salt, 84.98% free base) is stored at 4° C. and is added to deionized water at 2× the final concentration and sonicated until dissolved. An equal volume of 0.5% methylcellulose and 0.1% Tween® 80 in deionized water is added to provide a 5.884 mg/mL dosing solution in 0.25% methylcellulose and 0.05% Tween® 80 in deionized water (Vehicle 1). Portions of this solution are diluted with Vehicle 1 to provide 3.53 and 1.765 mg/mL dosing solutions.
COMPOUND C (HCl salt, 91.85% free base) is stored at −20° C. and is added to 1% Tween® 80 in deionized water and sonicated to obtain a uniform suspension at 2× the final concentration. […] The 0.544 mg/mL dosing suspension is obtained by diluting a portion of the first suspension with Vehicle 2.

[11] abbreviates: COMPOUND C 32.7 mg/kg (30 mg/kg free base) p.o. qd x21.

On to `Nc1cc(C(F)(F)F)c(-c2cc(N3CCOCC3)nc(N3CCOCC3)n2)cn1` [COMPOUND C, 5-(2,6-di-morpholin-4-yl-pyrimidin-4-yl)-4-trifluoromethyl-pyridin-2-ylamine], for which the “anti-proliferative activity (single agent)” value was “concentration dependent anti-proliferative activity” in [1], “concentration dependent anti-proliferative activity” in [2], “concentration dependent anti-proliferative activity” in assay [4] and “less active” in assay [6]. Further, the “MaxGI (GImax, combination effectiveness)” value in assay [3] came to 1.83; in assay [5], 1.54; in [7], 1.78; in assay [8], 1.67; in [9], 1.37. For the same molecule, the “increase of median TTE” value in assay [10] (COMPOUND C 30 mg/kg free base p.o. qd x21) is given as 9.3 days. Also, in assay [10] (setting [11]), the “% TGD” value is given as 79%. Besides, the “T/C or T/T0” value in [10] (setting [11]) was found to be 31%; in [10] (COMPOUND C 32.7 mg/kg (30 mg/kg free base) p.o. qd x21, listed as CMPD. C), 31%. For the same molecule, the “Median TTE” value in assay [10] (COMPOUND C 32.7 mg/kg (30 mg/kg free base) p.o. qd x21, endpoint 2000 mm3) is recorded as 21.0 days. The Regress. in assay [10] (COMPOUND C 32.7 mg/kg p.o. qd x21, number of animals) came out at 0.
